# Measurements: US20250000881A1, “TREATMENT OF TREATMENT RESISTANT […] PSILOCYBIN” (COMPASS […], priority 2021, published 2025)
# System: adult subjects with TRD
# Experiment: Phase 2b trial in TRD: safety, treatment emergent adverse events
# Format: in vivo, human
# Text: Another objective was to evaluate the safety and tolerability of psilocybin in subjects with TRD based on AEs, changes in vital signs, and suicidal ideation/behaviour (measured using the Columbia-Suicide Severity Rating Scale [C-SSRS]) score at all visits.
# Throughout the course of the study, all adverse events (AEs) were monitored and recorded and included the AE's description, start and end date, seriousness, severity, action taken, and relationship to the treatment. If AEs occurred, the first concern was the safety of the study subjects.
# An AE can therefore be any unfavorable and unintended sign (including an abnormal laboratory finding, for example), symptom, or disease temporally associated with the use of a medicinal product, whether considered related to the medicinal product.
# AEs were coded by Preferred Term (PT) using the Medical Dictionary for Regulatory Activities (MedDRA) classification. All reported AEs with onset or worsening after the administration of study medication were included in the analysis. The incidence of AEs was summarized by treatment group, and by severity and relationship to psilocybin. Serious AEs and AEs leading to withdrawal from the study will be tabulated.
# A TEAE is defined as any AE that has an onset on or after the dose of psilocybin, or any pre-existing condition that has worsened on or after the dose of psilocybin.
# The incidence of TEAEs and treatment-related AEs were summarized by maximum severity and most-related relationship to psilocybin by MedDRA primary system organ class and PT. The summary included the total number and percentage of subjects reporting an event.
structure (smiles),measurement,setting,value
"CN(C)CCc1c[nH]c2cccc(OP(=O)(O)O)c12 [COMP360, psilocybin]","Any TESAE, participants",1 mg (N = 79),1 (1.3) n (%)
same,"TEAE Abdominal pain upper, participants",1 mg (N = 79),1 (1.3) n (%)
same,"TEAE Anxiety, participants",1 mg (N = 79),3 (3.8) n (%)
same,"TEAE Back pain, participants",1 mg (N = 79),3 (3.8) n (%)
same,"TEAE Depressed mood, participants",1 mg (N = 79),4 (5.1) n (%)
same,"TEAE Depression, participants",1 mg (N = 79),5 (6.3) n (%)
same,"TEAE Dizziness, participants",1 mg (N = 79),1 (1.3) n (%)
same,"TEAE Euphoric mood, participants",1 mg (N = 79),4 (5.1) n (%)
same,"TEAE Fatigue, participants",1 mg (N = 79),7 (8.9) n (%)
same,"TEAE Headache, participants",1 mg (N = 79),20 (25.3) n (%)
same,"TEAE Insomnia, participants",1 mg (N = 79),14 (17.7) n (%)
same,"TEAE Irritability, participants",1 mg (N = 79),1 (1.3) n (%)
same,"TEAE Mood altered, participants",1 mg (N = 79),1 (1.3) n (%)
same,"TEAE Myalgia, participants",1 mg (N = 79),1 (1.3) n (%)
same,"TEAE Nausea, participants",1 mg (N = 79),4 (5.1) n (%)
same,"TEAE Panic reaction, participants",1 mg (N = 79),1 (1.3) n (%)
same,"TEAE Paraesthesia, participants",1 mg (N = 79),1 (1.3) n (%)
same,"TEAE Suicidal ideation, participants",1 mg (N = 79),4 (5.1) n (%)
same,"TEAE Thinking abnormal, participants",1 mg (N = 79),0 n (%)
same,"TESAE Adjustment disorder with anxiety, participants",1 mg (N = 79),0 n (%)
same,"TESAE Adjustment disorder with mixed anxiety and depressed mood, participants",1 mg (N = 79),0 n (%)
same,"TESAE Depression, participants",1 mg (N = 79),0 n (%)
same,"TESAE Drug withdrawal syndrome*, participants",1 mg (N = 79),0 n (%)
same,"TESAE Hospitalisation, participants",1 mg (N = 79),0 n (%)
same,"TESAE Intentional self-injury, participants",1 mg (N = 79),1 (1.3) n (%)
same,"TESAE Suicidal behaviour, participants",1 mg (N = 79),0 n (%)
same,"TESAE Suicidal ideation, participants",1 mg (N = 79),0 n (%)
same,"Patients with TEAEs of suicidal ideation, suicidal behaviour and intentional self-injury",1 mg group,four
same,"Patients with TESAEs of suicidal ideation, suicidal behaviour and intentional self-injury",1 mg group,one
same,"Any TESAE, participants",10 mg (N = 75),6 (8.0) n (%)
same,"TEAE Abdominal pain upper, participants",10 mg (N = 75),2 (2.7) n (%)
same,"TEAE Anxiety, participants",10 mg (N = 75),13 (17.3) n (%)
same,"TEAE Back pain, participants",10 mg (N = 75),0 n (%)
same,"TEAE Depressed mood, participants",10 mg (N = 75),5 (6.7) n (%)
same,"TEAE Depression, participants",10 mg (N = 75),6 (8.0) n (%)
same,"TEAE Dizziness, participants",10 mg (N = 75),1 (1.3) n (%)
same,"TEAE Euphoric mood, participants",10 mg (N = 75),5 (6.7) n (%)
same,"TEAE Fatigue, participants",10 mg (N = 75),5 (6.7) n (%)
same,"TEAE Headache, participants",10 mg (N = 75),16 (21.3) n (%)
same,"TEAE Insomnia, participants",10 mg (N = 75),11 (14.7) n (%)
same,"TEAE Irritability, participants",10 mg (N = 75),2 (2.7) n (%)
same,"TEAE Mood altered, participants",10 mg (N = 75),3 (4.0) n (%)
same,"TEAE Myalgia, participants",10 mg (N = 75),2 (2.7) n (%)
same,"TEAE Nausea, participants",10 mg (N = 75),7 (9.3) n (%)
same,"TEAE Panic reaction, participants",10 mg (N = 75),1 (1.3) n (%)
same,"TEAE Paraesthesia, participants",10 mg (N = 75),4 (5.3) n (%)
same,"TEAE Suicidal ideation, participants",10 mg (N = 75),5 (6.7) n (%)
same,"TEAE Thinking abnormal, participants",10 mg (N = 75),4 (5.3) n (%)
same,"TESAE Adjustment disorder with anxiety, participants",10 mg (N = 75),0 n (%)
same,"TESAE Adjustment disorder with mixed anxiety and depressed mood, participants",10 mg (N = 75),0 n (%)
same,"TESAE Depression, participants",10 mg (N = 75),1 (1.3) n (%)
same,"TESAE Drug withdrawal syndrome*, participants",10 mg (N = 75),0 n (%)
same,"TESAE Hospitalisation, participants",10 mg (N = 75),1 (1.3) n (%)
same,"TESAE Intentional self-injury, participants",10 mg (N = 75),2 (2.7) n (%)
same,"TESAE Suicidal behaviour, participants",10 mg (N = 75),0 n (%)
same,"TESAE Suicidal ideation, participants",10 mg (N = 75),2 (2.7) n (%)
same,"Patients with TEAEs of suicidal ideation, suicidal behaviour and intentional self-injury",10 mg group,six
same,"Patients with TESAEs of suicidal ideation, suicidal behaviour and intentional self-injury",10 mg group,four
same,"Any TESAE, participants",25 mg (N = 79),5 (6.3) n (%)
same,"TEAE Abdominal pain upper, participants",25 mg (N = 79),4 (5.1) n (%)
same,"TEAE Anxiety, participants",25 mg (N = 79),7 (8.9) n (%)
same,"TEAE Back pain, participants",25 mg (N = 79),6 (7.6) n (%)
same,"TEAE Depressed mood, participants",25 mg (N = 79),3 (3.8) n (%)
same,"TEAE Depression, participants",25 mg (N = 79),4 (5.1) n (%)
same,"TEAE Dizziness, participants",25 mg (N = 79),6 (7.6) n (%)
same,"TEAE Euphoric mood, participants",25 mg (N = 79),4 (5.1) n (%)
same,"TEAE Fatigue, participants",25 mg (N = 79),12 (15.2) n (%)
same,"TEAE Headache, participants",25 mg (N = 79),27 (34.2) n (%)
same,"TEAE Insomnia, participants",25 mg (N = 79),8 (10.1) n (%)
same,"TEAE Irritability, participants",25 mg (N = 79),4 (5.1) n (%)
same,"TEAE Mood altered, participants",25 mg (N = 79),7 (8.9) n (%)
same,"TEAE Myalgia, participants",25 mg (N = 79),5 (6.3) n (%)
same,"TEAE Nausea, participants",25 mg (N = 79),18 (22.8) n (%)
same,"TEAE Panic reaction, participants",25 mg (N = 79),4 (5.1) n (%)
same,"TEAE Paraesthesia, participants",25 mg (N = 79),3 (3.8) n (%)
same,"TEAE Suicidal ideation, participants",25 mg (N = 79),5 (6.3) n (%)
same,"TEAE Thinking abnormal, participants",25 mg (N = 79),0 n (%)
same,"TESAE Adjustment disorder with anxiety, participants",25 mg (N = 79),1 (1.3) n (%)
same,"TESAE Adjustment disorder with mixed anxiety and depressed mood, participants",25 mg (N = 79),1 (1.3) n (%)
same,"TESAE Depression, participants",25 mg (N = 79),0 n (%)
same,"TESAE Drug withdrawal syndrome*, participants",25 mg (N = 79),1 (1.3) n (%)
same,"TESAE Hospitalisation, participants",25 mg (N = 79),0 n (%)
same,"TESAE Intentional self-injury, participants",25 mg (N = 79),2 (2.5) n (%)
same,"TESAE Suicidal behaviour, participants",25 mg (N = 79),3 (3.8) n (%)
same,"TESAE Suicidal ideation, participants",25 mg (N = 79),2 (2.5) n (%)
same,"Patients with TEAEs of suicidal ideation, suicidal behaviour and intentional self-injury",25 mg group,seven
same,"Patients with TESAEs of suicidal ideation, suicidal behaviour and intentional self-injury",25 mg group,four
same,"MADRS item 10 (suicidality) scores post-administration, comparison of groups","25 mg, 10 mg, 1 mg groups, blinded remote rater",no difference between the three groups
same,"Any TESAE, participants",Overall (N = 233),12 (5.2) n (%)
same,"TEAE Abdominal pain upper, participants",Overall (N = 233),7 (3.0) n (%)
same,"TEAE Anxiety, participants",Overall (N = 233),23 (9.9) n (%)
same,"TEAE Back pain, participants",Overall (N = 233),9 (3.9) n (%)
same,"TEAE Depressed mood, participants",Overall (N = 233),12 (5.2) n (%)
same,"TEAE Depression, participants",Overall (N = 233),15 (6.4) n (%)
same,"TEAE Dizziness, participants",Overall (N = 233),8 (3.4) n (%)
same,"TEAE Euphoric mood, participants",Overall (N = 233),13 (5.6) n (%)
same,"TEAE Fatigue, participants",Overall (N = 233),24 (10.3) n (%)
same,"TEAE Headache, participants",Overall (N = 233),63 (27.0) n (%)
same,"TEAE Insomnia, participants",Overall (N = 233),33 (14.2) n (%)
same,"TEAE Irritability, participants",Overall (N = 233),7 (3.0) n (%)
same,"TEAE Mood altered, participants",Overall (N = 233),11 (4.7) n (%)
same,"TEAE Myalgia, participants",Overall (N = 233),8 (3.4) n (%)
same,"TEAE Nausea, participants",Overall (N = 233),29 (12.4) n (%)
same,"TEAE Panic reaction, participants",Overall (N = 233),6 (2.6) n (%)
same,"TEAE Paraesthesia, participants",Overall (N = 233),8 (3.4) n (%)
same,"TEAE Suicidal ideation, participants",Overall (N = 233),14 (6.0) n (%)
same,"TEAE Thinking abnormal, participants",Overall (N = 233),4 (1.7) n (%)
same,"TESAE Adjustment disorder with anxiety, participants",Overall (N = 233),1 (0.4) n (%)
same,"TESAE Adjustment disorder with mixed anxiety and depressed mood, participants",Overall (N = 233),1 (0.4) n (%)
same,"TESAE Depression, participants",Overall (N = 233),1 (0.4) n (%)
same,"TESAE Drug withdrawal syndrome*, participants",Overall (N = 233),1 (0.4) n (%)
same,"TESAE Hospitalisation, participants",Overall (N = 233),1 (0.4) n (%)
same,"TESAE Intentional self-injury, participants",Overall (N = 233),5 (2.1) n (%)
same,"TESAE Suicidal behaviour, participants",Overall (N = 233),3 (1.3) n (%)
same,"TESAE Suicidal ideation, participants",Overall (N = 233),4 (1.7) n (%)
same,"Patients with TEAEs of suicidal ideation, suicidal behaviour and intentional self-injury",all groups,17 patients
same,"Patients with TESAEs of suicidal ideation, suicidal behaviour and intentional self-injury",all groups,nine
same,TEAEs being mild or moderate in severity,all groups,more than 90%
same,TEAEs occurring on the day of administration that resolved on the same day or the day after,all groups,77.4%
same,"TEAEs of suicidal ideation, suicidal behaviour and intentional self-injury",all groups,27 events
same,"TESAEs of suicidal ideation, suicidal behaviour and intentional self-injury",all groups,14 events
same,TESAEs of suicidality/self-injury that occurred at least one week after the session,all groups,10 events out of 14
same,Participants reported at least one TEAE,all groups (233 patients),179 participants
same,Timing of suicidal behaviours after the psilocybin therapy session,all patients reporting these events were non responders at event onset,occurred at least one month after the psilocybin therapy session
same,Tolerability,"single dose 1, 10 or 25 mg",generally well tolerated
same,TEAEs involving hallucination (25 mg and 10 mg groups only) and illusion (all groups): onset and resolution,started on the day of administration,resolved on the same day
